Key:
Assay type in all cases: in vivo
[1] = test system: Silverleaf Whitefly (Bemisia argentifolii, Adult); experiment: Silverleaf whitefly, cotton plants sprayed; conditions: 300 ppm, 3 days after treatment
Protocol: II.8 Silverleaf Whitefly (Bemisia argentifolii, Adult)
(§1) The active compounds were formulated in cyclohexanone as a 10,0000 ppm solution supplied in 1.3 ml ABgene® tubes. These tubes were inserted into an automated electrostatic sprayer equipped with an atomizing nozzle and they served as stock solutions for which lower dilutions were made in 50% acetone:50% water (vol/vol). A nonionic surfactant (Kinetic®) was included in the solution at a volume of 0.01% (vol/vol).
Cotton plants at the cotyledon stage (one plant per pot) were sprayed by an automated electrostatic plant sprayer equipped with an atomizing spray nozzle. The plants were dried in the sprayer fume hood and then removed from the sprayer. Each pot was placed into a plastic cup and 10 to 12 whitefly adults (approximately 3-5 days old) were introduced. The insects were collected using an aspirator and 0.6 cm, nontoxic Tygon® tubing (R-3603) connected to a barrier pipette tip. The tip, containing the collected insects, was then gently inserted into the soil containing the treated plant, allowing insects to crawl out of the tip to reach the foliage for feeding. Cups were covered with a reusable screened lid (150-micron mesh polyester screen PeCap from Tetko, Inc.). […] Mortality was assessed 3 days after treatment, compared to untreated control plants.

[2] = test system: Brown Planthopper (Nilaparvata lugens); experiment: Brown planthopper, rice seedlings sprayed; conditions: 500 ppm, after 72 hours
Protocol: II.7 Activity Against Brown Planthopper (Nilaparvata lugens)
The active compounds were formulated as a 50:50 (vol/vol) acetone:water solution. Surfactant (Alkamuls EL 620) was added at the rate of 0.1% (vol/vol).
Rice seedlings were cleaned and washed 24 h before spraying. Potted rice seedlings were sprayed with 5 ml test solution, air dried, placed in cages and inoculated with 10 adults. Treated rice plants were kept at 28-29° C. and relative humidity of 50-60%. Percent mortality was recorded after 72 hours.

[3] = test system: Cotton Aphid (Aphis gossypii, Mixed Life Stages); experiment: Cotton aphid, method b) (electrostatic sprayer); conditions: 300 ppm; infested cotton plants sprayed; after 5 days
Protocol: II.1 Cotton Aphid (Aphis gossypii, Mixed Life Stages)
as §1, with “sur25 factant” for “surfactant”
Cotton plants at the cotyledon stage were infested with aphids prior to treatment by placing a heavily infested leaf from the main aphid colony on top of each cotyledon. Aphids were allowed to transfer overnight to accomplish an infestation of 80-100 aphids per plant and the host leaf was removed. The infested plants were then sprayed by an automated electrostatic plant sprayer equipped with an atomizing spray nozzle. The plants were dried in the sprayer fume hood, removed from the sprayer, and then maintained in a growth room under fluorescent lighting in a 24-hr photoperiod at 25° C. and 20-40% relative humidity. Aphid mortality on the treated plants, relative to mortality on untreated control plants, was determined after 5 days.

[4] = test system: Boll Weevil (Anthonomus grandis); experiment: Boll weevil, insect diet in 24-well-microtiter plates; conditions: 120 h, test solution 2500 mg/L, sprayed onto insect diet, 5 days, read-out: mortality (egg and larval)
Protocol: II.5 Boll Weevil (Anthonomus grandis)
The compounds were formulated in 75:25 (vol/vol) water:DMSO.
For evaluating control of boll weevil (Anthonomus grandis) the test unit consisted of 24-well-microtiter plates containing an insect diet and 20-30 A. grandis eggs. Different concentrations of formulated compounds were sprayed onto the insect diet at 20 μl, using a custom built micro atomizer, at two replications. After application, the microtiter plates were incubated at 23±1° C. and 50±5% relative humidity for 5 days. Egg and larval mortality was then visually assessed.

## O=C(Nc1cccnc1)c1sccc1C(F)(F)F [Compound 7]
[1]
  mortality in comparison with untreated controls: at least 75%

## CN(C(=O)c1cccn1C)c1cccnc1 [Compound 14]
[2]
  mortality in comparison with untreated controls: at least 50%

## O=C(Nc1cccnc1)c1cscc1C(F)(F)F [Compound 26]
[3]
  mortality in comparison with untreated controls: at least 75%

## CN(C(=O)c1cc(Cl)sc1Cl)c1cccnc1 [Compound 28, 2,5-Dichloro-thiophene-3-carboxylic acid methyl-pyridin-3-yl-amide]
[4]
  mortality at 2500 µg/mL: ≥ 50%

From patent publication US8609700B2, “Pyridine compounds for controlling invertebrate pests I” (BASF SE, priority 2010, dated 2013)
